From article PMC5839409, “Targeting intracellular B2 receptors using novel cell-penetrating antagonists to arrest growth and induce apoptosis in human triple-negative breast cancer” (Oncotarget, 2018)
Square brackets hold non-standard residues; d marks the D form. Peptide text beside a SMILES is read from it.

Legend:
human B2R = molecular target: T1, human B2R (Homo sapiens, UniProt P30411); test: Radioligand competition binding on live adherent HEK-293T cells transiently transfected with hB2R; details: read-out: binding affinity; agonists, HEK-293T cells transfected with B2R
T1 construct: expressed in transfected cells; host or cells: HEK-293T
T1 sequence (P30411 1-391): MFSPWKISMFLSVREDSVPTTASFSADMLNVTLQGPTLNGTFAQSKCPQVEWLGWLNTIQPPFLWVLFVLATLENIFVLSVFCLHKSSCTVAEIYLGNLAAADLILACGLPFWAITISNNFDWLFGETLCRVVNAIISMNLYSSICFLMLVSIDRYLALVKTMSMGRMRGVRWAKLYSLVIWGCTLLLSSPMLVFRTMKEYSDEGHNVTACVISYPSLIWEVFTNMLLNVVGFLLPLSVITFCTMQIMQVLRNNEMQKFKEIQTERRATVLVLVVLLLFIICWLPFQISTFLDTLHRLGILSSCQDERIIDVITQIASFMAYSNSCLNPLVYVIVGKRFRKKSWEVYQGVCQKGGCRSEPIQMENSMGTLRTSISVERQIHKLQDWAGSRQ

[1] = molecular target: T2, B2R endogenously expressed in the human de-endothelized umbilical veins (Homo sapiens, UniProt P30411); test: Functional bioassay on isolated human de-endothelized umbilical veins (hUV); details: read-out: biological activity; agonists, isometric contraction of human vessels
T2 construct: B2R endogenously expressed in the human de-endothelized umbilical veins (hUV); from tissue; host or cells: human umbilical vein, de-endothelized
T2 sequence (P30411 1-391): T1 sequence (P30411 1-391)
Experimental: For testing the pharmacological activities of agonists, complete concentration-contractile response curves to agents were done at the B2R endogenously expressed in the human de-endothelized umbilical veins (hUV), as previously described. EC50 values (or potencies) of the agonists were calculated from the obtained concentration-response curves. […] The collection of umbilical cords for the bioassays was approved by the local ethical committee, and maternal consent was obtained in every case.

MDA-MB-231 cells = test: Anchorage-dependent clonogenic assay; type: cell-based, human; details: 10-14 days
Experimental: MDA-MB-231 cells were plated at 200 cells/well in a six-well dish in 2 ml DMEM medium containing 10% FBS. […] After 10 to 14 days, colonies were fixed and stained with 0.5% methylene blue in 50% ethanol. Excess of staining solution was removed carefully with tap water and the plates were dried overnight. Colony counting and densitometric analyses (to measure total colony numbers and surface areas) were performed using the Image Pro Plus 5.1 software.

With `N=C(N)NCCC[C@H](NC(=O)[C@H](Cc1ccccc1)NC(=O)[C@@H]1CCCN1C(=O)[C@H](CO)NC(=O)[C@H](Cc1ccccc1)NC(=O)CNC(=O)[C@@H]1CCCN1C(=O)[C@@H]1CCCN1C(=O)[C@H](CCCNC(=N)N)NC(=O)CNC(=O)CNC(=O)CNC(=O)[C@@H](CCCNC(=N)N)NC(=O)[C@@H](CCCNC(=N)N)NC(=O)[C@@H](CCCNC(=N)N)NC(=O)[C@@H](CCC(N)=O)NC(=O)[C@@H](CCCNC(=N)N)NC(=O)[C@@H](CCCNC(=N)N)NC(=O)[C@@H](CCCCN)NC(=O)[C@@H](CCCCN)NC(=O)[C@@H](CCCNC(=N)N)NC(=O)CN)C(=O)O` [DTat-BK] (H-G[dR][dK][dK][dR][dR][dQ][dR][dR][dR]GGGRPPGFSPFR-OH; N-terminus and C-terminus assumed) the IC50 (human B2R) was 110 ± 4 nM, the EC50 [1] was 350 ± 1 nM and the “colony number (agonist effect)” value (MDA-MB-231 cells) was “did not increase colony number”. The “colony surface area (agonist effect)” value (MDA-MB-231 cells) was “increase in colony surface area”.
